Reference: patent EP0431480A2, “Substituted 10-ring-lactones, process for their preparation and their use” (HOECHST AKTIENGESELLSCHAFT, priority 1989, dated 1991)

What was measured:
HEP-G2-Zellen = assay: Inhibition of cholesterol biosynthesis: incorporation of 14C sodium acetate into cholesterol in HEP-G2 cell monolayers; assay type: cell-based; conditions: Homo sapiens; for inhibition at 0.0025 µM: HepG2, Konzentration im Medium 2,5·10^-9 M; for inhibition at 0.1 µM: HepG2, Konzentration im Medium 10^-7 M
Text: Hemmung der Cholesterin Biosynthese
Die Hemmung der Cholesterin Biosynthese durch die erfindungsgemäßen Verbindungen wurde in Zellkulturversuchen mit HEP-G2-Zellen über die Wirkung auf den Einbau von ^14C-Natriumacetat in Cholesterin nachgewiesen. Dazu wurden Monolayers von HEP-G2-Zellen in lipoproteinfreiem Nährmedium mit entsprechenden Konzentrationen der erfindungsgemäßen Verbindungen eine Stunde vorinkubiert; nach Zugabe des^14C markierten Präkursors ^14C-Natriumacetat wurde die Inkubation für 3 Stunden fortgesetzt. Danach wurde ein Teil der Zellen alkalisch verseift, nach vorheriger Zugabe eines internen Standards von ^3H-Cholesterin. Die Lipide der verseiften Zellen wurden mit Chloroform-Methanol extrahiert. Dieses Lipidgemisch wurde nach Zusatz von Trägercholesterin präparativ dünnschichtchromatographisch getrennt, die Cholesterinbande nach dem Sichtbarmachen isoliert und die aus dem 14C-Präkursor gebildete Menge '^4C-Cholesterin szintigraphisch bestimmt. In einem aliquoten Teil der Zellen wurde Zellprotein bestimmt, so daß die in der Zeiteinheit pro mg Zellprotein aus 14C-Präkursor gebildete Menge an ^14C-Cholesterin berechnet werden konnte. Zum Vergleich für die Hemmwirkung einer zugesetzten erfindungsgemäßen Verbindung diente die Kontrolle, so daß direkt die Hemmung der Cholesterinbiosynthese bei einer bestimmten molaren Konzentration der erfindungsgemäßen Verbindung im Medium angegeben werden konnte. Zur Beurteilung der Wirkungstärke der erfindungsgemäßen Verbindungen wurde die Hemmwirkung von Lovastatin im selben Versuchsansatz bestimmt. In aliquoten Anteilen der Zellkultur wurde die Intaktheit der Zellkultur und die fehlende Zellschädigung durch Einwirkung der erfindungsgemäßen Verbindung morphologisch (Lichtmikroskop) beurteilt und biochemisch durch Bestimmung des Release von Laktat-Dehydrogenase ins Inkubationsmedium gemessen.
Das Ergebnis dieser Untersuchung ist in Tabelle 2 wiedergegeben. Die Wirkung der erfindungsgemäßen Substanzen als Cholesterin-Biosynthese-Hemmer ist deutlich zu erkennen. In den geprüften Konzentrationen hatten die erfindungsgemäßen Verbindungen im Zeitraum von 4 Stunden keine cytotoxische Wirkung.

Serumlipoproteine = assay: Chronic test in male rats: 7 daily oral doses, serum lipoproteins separated by preparative ultracentrifugation; assay type: in vivo, Ratte; conditions: for Vasoprotektiv Index HDL-C LDL-C: HDL-Cholesterin : LDL-Cholesterin, Kontrolle 3,24
Text: Die Hemmung der hepatischen Cholesterinbiosynthese hat Auswirkungen auf die Verminderung von Serum-Lipiden, wie im chronischen Versuch an der männlichen Ratte nachgewiesen werden konnte (Tabelle 2).
Gruppen männlicher Ratten des Stammes HOE: WISKf (SPF 71) mit einem Ausgangsgewicht von etwa 240 g erhielten täglich morgens die erfindungsgemäßen Verbindungen in Polyethylenglykol 400 per
Schlundsonde, wobei die jeweilige Kontrollgruppe nur das Vehikel erhielt. 24 Stunden nach der letzten (7.) Applikation und nach 24 Stunden Futterentzug wurde Blut entnommen und im gewonnen Serum die Lipoproteine aus dem Pool einer Rattengruppe mittels der präparativen Ultrazentrifugentechnik getrennt. Hierbei wurden folgende Dichtegrenzen für die Trennung von VLDL, LDL und HDL benutzt:
• VLDL = very low density lipoprotein • LDL = low density lipoprotein • HDL = high density lipoprotein
Für die Bestimmung des Cholesterins und der Triglyceride wurden vollenzymatische Methoden nach Boehringer/Mannheim benutzt, für die Bestimmung des Proteins die Methode von Lowry et al. J. Biol. Chem., 193, 265 (1951) herangezogen. […] Daraus resultiert eine Erhöhung des vasoprotektiven Index (HDL-Cholesterin : LDL-Cholesterin) mit einer ca. 8-fach höheren Potency als Clofibrat.

[1] = read-out: % Cholesterin-Biosynthese-Hemmung

Structure (SMILES): CCCCC(=O)OC1CC(=O)CC(=O)OC(C)CC2OC12 (centres unmarked) [II.11, 6-Butylcarbonyloxy-2,4-dioxo-10-methyl-1-oxa-7-cyclodecenoxid]
- inhibition at 0.0025 µM (HEP-G2-Zellen; [1]): 57%
- inhibition at 0.1 µM (HEP-G2-Zellen; [1]): 73%

Structure (SMILES): CC1CC2OC2C(OC(=O)c2ccccc2)CC(=O)CC(=O)O1 (centres unmarked) [II.3]
- Beeinflussung der Serumlipoproteine im Vergleich zur Kontrollgruppe in % HDL-C (Serumlipoproteine; 30 mg/kg/Tag oral, 7 days): +22%
- Beeinflussung der Serumlipoproteine im Vergleich zur Kontrollgruppe in % LDL-C (Serumlipoproteine; 30 mg/kg/Tag oral, 7 days): -19%
- Beeinflussung der Serumlipoproteine im Vergleich zur Kontrollgruppe in % LDL-Protein (Serumlipoproteine; 30 mg/kg/Tag oral, 7 days): -14%
- Beeinflussung der Serumlipoproteine im Vergleich zur Kontrollgruppe in % VLDL-C (Serumlipoproteine; 30 mg/kg/Tag oral, 7 days): -21%
- Vasoprotektiv Index HDL-C LDL-C (Serumlipoproteine; 30 mg/kg/Tag oral, 7 days): 4,88
- Wirkung auf LDL, VLDL und HDL-Fraktion (in words) (Serumlipoproteine; 7-tägige orale Applikation, lower dose than Clofibrat): deutlichen Verminderung von LDL und VLDL, bei Erhöhung der HDL-Fraktion
- Verträglichkeit (Anwendung der Substanz von den Ratten vertragen) (Serumlipoproteine; 7 days oral): anstandslos vertragen
- Hepatomegalie (Serumlipoproteine; 7 days oral, in contrast to Clofibrat): keine Hepatomegalie
- Erhöhung des vasoprotektiven Index (HDL-Cholesterin : LDL-Cholesterin): höhere Potency als Clofibrat (Serumlipoproteine; relative to Clofibrat, 7 days oral): ca. 8 -fach

Structure (SMILES): CCCCCC(=O)OC1CC(=O)CC(=O)OC(C)CC2OC12 (centres unmarked) [II.13]
- inhibition at 0.01 µM (HEP-G2-Zellen; HepG2, Konzentration im Medium 10^-8 M, read-out: % Cholesterin-Biosynthese-Hemmung): 44%
- inhibition at 0.001 µM (HEP-G2-Zellen; HepG2, Konzentration im Medium 10^-9 M, read-out: % Cholesterin-Biosynthese-Hemmung): 37%

Structure (SMILES): CC1CC2OC2C(OC(=O)Nc2ccccc2)CC(=O)CC(=O)O1 (centres unmarked) [II.4, 2,4-Dioxo-10-methyl-1-oxa-6-(phenyl-amino-carbonyl-oxy)-7-cyclodecenoxid]
- inhibition at 0.1 µM (HEP-G2-Zellen; [1]): 68%

Structure (SMILES): CCOC(=O)C(C)(C)Oc1ccc(Cl)cc1 [Clofibrat, reference compound]
- Beeinflussung der Serumlipoproteine im Vergleich zur Kontrollgruppe in % HDL-C (Serumlipoproteine; 100 mg/kg/Tag oral, 7 days): -36%
- Beeinflussung der Serumlipoproteine im Vergleich zur Kontrollgruppe in % HDL-Protein (Serumlipoproteine; 100 mg/kg/Tag oral, 7 days): -14%
- Beeinflussung der Serumlipoproteine im Vergleich zur Kontrollgruppe in % LDL-C (Serumlipoproteine; 100 mg/kg/Tag oral, 7 days): -47%
- Beeinflussung der Serumlipoproteine im Vergleich zur Kontrollgruppe in % LDL-Protein (Serumlipoproteine; 100 mg/kg/Tag oral, 7 days): -13%
- Beeinflussung der Serumlipoproteine im Vergleich zur Kontrollgruppe in % VLDL-C (Serumlipoproteine; 100 mg/kg/Tag oral, 7 days): -56%
- Vasoprotektiv Index HDL-C LDL-C (Serumlipoproteine; 100 mg/kg/Tag oral, 7 days): 3,87

Structure (SMILES): CC(=O)OC1CC(=O)CC(=O)OC(C)CC2OC12 (centres unmarked) [II.1]
- inhibition at 0.1 µM (HEP-G2-Zellen; [1]): 13%

Structure (SMILES): CC(C)CC(=O)OC1CC(=O)CC(=O)OC(C)CC2OC12 (centres unmarked) [II.10]
- inhibition at 0.0025 µM (HEP-G2-Zellen; [1]): 48%
- inhibition at 0.1 µM (HEP-G2-Zellen; [1]): 59%

Structure (SMILES): CCC(=O)OC1CC(=O)CC(=O)OC(C)CC2OC12 (centres unmarked) [II.8]
- inhibition at 0.0025 µM (HEP-G2-Zellen; [1]): 51%
- inhibition at 0.1 µM (HEP-G2-Zellen; [1]): 69%

Structure (SMILES): CC[C@H](C)C(=O)O[C@H]1C[C@@H](C)C=C2C=C[C@H](C)[C@H](CC[C@@H]3C[C@@H](O)CC(=O)O3)[C@H]21 [Lovastatin, reference compound]
- IC50 (HEP-G2-Zellen; HepG2, Lovastatin in the same experimental run as the substance of the row, read-out: Vergleichsreihe für Lovastatin im selben Versuchsansatz IC50): 10 nM
